Columns and labels:
Respective cell lines = assay: Cytotoxicity assay (MTT); format: cell-based; conditions: 48 hours
Description: In testing the compounds in cell lines, if cells are killed due to a toxicity of the compounds at the treatment concentration, a significant result cannot be obtained. Therefore, the toxicity assay was conducted by treatment with the compounds as follows. Respective cell lines were maintained on 96-well cell culture plate in the medium comprising 10% FBS with 1% Penicillin G/streptomycin, and then incubated under 37° C., 5% CO2 condition. All the experiments were repeated three times. The samples were properly diluted, and then cells were treated with the diluted samples at the concentrations of 1, 3, 10, 30, 100 μg/ml. After 48 hours, 10% (v/v) 5 mg/mL 3-(4,5-dimethylthiazol-2-yl)-2,5-diphenyltetrazolium bromide (MTT; Sigma) was added to the cell culture. After 3 hours of the incubation, the medium was aspirated and washed with PBS. After adding DMSO (100 μl), the mixture was gently agitated for 5 minutes. The absorbance was measured at 570 nm by means of VERSA max microplate reader (Molecular Devices Inc.), and the average absorbance (±SE) values as obtained from three experiments were compared with t-test, a statistical significance of P<0.05. When Compounds 1 and 3 were used at the concentrations of 1, 3, 10, 30, 100 μg/ml, the survival rates of cells were 94, 76, 70, 67, 30%, respectively, by the treatment with Compound 1, and 74, 71, 65, 57, 19%, respectively, by the treatment with Compound 3. It means that at least 50% of cells survive at the concentration (for example, 30 μg/ml) of the compounds of the present invention for measuring IL-6 inhibitory activity.

[1] = tested on: Zymosan A-induced paw inflammation in C57BL/6 mice; assay: Zymosan A-induced paw inflammation, effect of alleviating the inflammation; format: in vivo, mouse; conditions: for Difference between the thicknesses of the right paw and left paw: Zymosan and 30 mg/kg Compound 3 into right paw
Description: For this experiment, C57BL/6 mice were obtained from Central Lab. Animal Inc., and acclimated for one week and then used in the experiment. The gender of animals used in the experiment was female, and 4 mice were used in each of the control group and the test group (Doe group). To experiment Compound 3's effect of alleviating the inflammation, the thicknesses of paws having the inflammation is reduced by injecting 3 mg of Zymosan A and 30 mg/kg of Compound 3 into right paws of the experimental animals, and both the paw thicknesses in the control group to which Zymosan A was administered to induce the inflammation and the control group having no treatment were measured every day, and the results are as shown in FIG. 7.
When the paw thickness was measured every day after inducing the inflammatory reaction by Zymosan, a difference between the thicknesses of the right paw and left paw was 8.5, 7.0, 6.5, 5.5, 5.6 mm. It could be identified that by treatment with Zymosan and Compound 3 the inflammatory reaction was alleviated so that a difference between paw thicknesses was 6.0, 3.0, 2.0, 1.9, 1.8 mm. A difference between paw thicknesses could also be identified in real photographs of the group treated only with Zymosan, the test group treated with Zymosan and Compound 3, and the control group having no treatment of the experimental animals on the 6th day in the inflammation alleviating assay (FIG. 8).

[2] = tested on: IL-6 reactive STAT3 reporter gene; assay: IL-6 reactive STAT3 reporter gene test (pSTAT3-TA-Luc6 luciferase) in HepG2 cells; format: cell-based; conditions: Homo sapiens
Description: A pSTAT3-TA-Luc6 construct, which comprises 8 more STAT3 DNA binding sequence copies as compared to pSTAT-3-TA-Luc and thus, enables to better reflect STAT3 reporter gene assay, was prepared. STAT3 DNA binding sequence was amplified using pSTAT3-TA-Luc plasmid (Clontech, Palo Alto, Calif.) as the template, and oligonucleotide ([…]. SEQ ID NO: 1 (containing Kpn I site)) and oligonucleotide ([…] GAAGCAACGTTC (containing Xho I site)) as forward primer and reverse primer, respectively, by means of a thermocycler. The amplified PCR product was cloned, separated, and then inserted into Kpn I/Xho I site of pSTAT3-TA-Luc plasmid.
Human hepatoma cell line, HepG2 cell, was incubated in MEM (Minimal Essential Medium, WelGENE Inc, Daegu, Korea) medium under water-saturated condition at 37° C., 5% CO2. To this medium was added 10% (v/v) fetal bovine serum, streptomycin (100 U/mL) and penicillin (100 U/mL). 6-Well cell culture plate was allowed to grow cells up to 80%, and then the specimen was pre-treated for one hour. Then, the medium was changed into 50 μL of serum-free medium, and the mixed solution of 0.1 μL pSTAT3-TA-Luc6 construct and 0.3 μL lipofectamin reagent was added to each well and then allowed to react for 3 hours to transfect cells with pSTAT3-TA-Luc6 construct. The medium was changed to a fresh medium, and the plate was incubated for 24 hours to transiently transfect cells. The transfected cells were serum-starved with 1% BSA/DMEM, and treated with the samples for one hour and then, after adding IL-6, incubated for 3 hours. The mixture was washed with PBS, shaken for one minute with addition of 50 μL of lysis buffer (promega luciferase assay system). After adding 30-100 μL of luciferase substrate (Promega luciferase assay system), the mixture was measured by a luminometer within 5 minutes.
Among others Compounds 1 and 3 as the materials having high inhibitory effect on IL-6 activity were used at various concentration to measure the degree of inhibitory effect, and the results thereof are as shown in FIGS. 2 and 3.

CCc1ccc(Nc2nc3cc(NC(=O)c4ccccc4)ccc3o2)cc1 [Compound 3, N-(2-(4-ethylphenylamino)benzo[d]oxazol-5-yl)benzamide]
Survival rate of cells (Respective cell lines; 1 μg/ml): 74% | Survival rate of cells (Respective cell lines; 3 μg/ml): 71% | Survival rate of cells (Respective cell lines; 10 μg/ml): 65% | Survival rate of cells (Respective cell lines; 30 μg/ml): 57% | Survival rate of cells (Respective cell lines; 100 μg/ml): 19% | Effect of alleviating the inflammation ([1]; 30 mg/kg, Zymosan A-induced paw inflammation (FIGS. 7, 8)): exhibited the effect of alleviating the inflammation | Difference between the thicknesses of the right paw and left paw ([1]; 1st daily measurement): 6.0 mm | Difference between the thicknesses of the right paw and left paw ([1]; 2nd daily measurement): 3.0 mm | Difference between the thicknesses of the right paw and left paw ([1]; 3rd daily measurement): 2.0 mm | Difference between the thicknesses of the right paw and left paw ([1]; 4th daily measurement): 1.9 mm | Difference between the thicknesses of the right paw and left paw ([1]; 5th daily measurement): 1.8 mm | IC50 ([2]; HepG2, read-out: IC50 of IL-6 inhibitory activity (STAT3 reporter gene)): 5.8 µM | inhibition at 20 µg/mL ([2]; HepG2, read-out: Inhibition % of IL-6 reactive STAT3 reporter gene activity, 20 ug/ml of sample, HepG2 cells): > 80%

— patent US8614240B2, “Benzoxazole derivatives having inhibitory activity against interleukin-6, preparation method thereof, and pharmaceutical composition containing the same” (EWHA University-Industry Collaboration Foundation, priority 2010, dated 2013)
